The record followed here is patent US11453671B2, “Pyrazolopyrimidine inhibitors of JAK kinases and uses thereof” (Genentech, Inc., priority 2020, dated 2022).

Like-named read-outs stand apart in the source and are kept apart here.

What is called Ki is a measure of affinity in units of concentration, obtained from inhibition or displacement. The term IC50 denotes the concentration at which inhibition is half-maximal.

The target in data set [1] is Recombinant human JAK2 kinase domain protein (Residues 812-1132) (Homo sapiens, UniProt O60674). Kind of data set: JAK2 biochemical assay (microfluidic mobility shift, peptide phosphorylation). As to conditions: Enzyme JAK2 Ki (nM), 25 μM ATP, 0.2 nM total JAK2.
Procedure: The in vitro biochemical assays quantify JAK-catalyzed phosphorylation of a synthetic peptide, as detected using a LabChip® EZ Reader II microfluidic mobility shift instrument (PerkinElmer; Waltham, Mass.). […] Y-1B is fluorescently labeled on the N-terminus with 5-FAM (5-carboxyfluorescein) and contains a single tyrosine residue (Y) that can be phosphorylated by JAK activity. The substrate peptide stock is prepared in DMSO at 5 mM.
In each titration experiment, test compound was tested in duplicate at each of the twelve concentrations. Blank reactions contained ATP, peptide, and DMSO, but no JAK or test compound, whereas uninhibited control reactions contained ATP, peptide, JAK, and DMSO, but no test compound.
Peptide plus ATP mixture (24 μL) was added to 1 μL of test compound in DMSO (or DMSO alone). The reactions were initiated by adding 25 μL of JAK enzyme to the inhibitor/peptide/ATP mixture before thoroughly mixing the resultant solution. Reactions were incubated at room temperature (22° C.-23° C.) in a final volume of 50 μL per well in 384-well plates.
In each reaction, the residual Y-1B substrate and the phospho-peptide product generated were separated using the EZ Reader II instrument. Electrophoretic separation of molecules of product from molecules of substrate was achieved using downstream and upstream voltages of −500 and −2600 V, respectively, at an operating pressure of −1.3 psi.
The extent (or percent) of conversion of substrate to product was calculated from the corresponding peak heights in the electropherogram using HTS Well Analyzer software, Version 5.2 (PerkinElmer), and the following equation (Equation 1): % conversion=[P÷(S+P)]×100 Equation 1 where S and P represent the peak heights of the substrate and product, respectively. After any baseline signal from blank wells containing no JAK was subtracted from the signal of all test wells, the % conversion data were converted to fractional activity as shown in Equation 2, where vi and vo are the % conversion in the presence and absence of test compound, respectively.
Data set [2] deals with JAK2 pathway: P-STAT5 in TF-1 human erythroleukemia cells + EPO. Kind of data set: P-STAT5 TF-1+Erythropoietin (EPO) assay. Type of data set: cell-based. As to conditions: EPO stimulation, read-out: Cellular JAK2 PSTAT5 TF-l + EPO IC50. As for the experimental part:
(§1) TF-1 human erythroleukemia cells (ATCC®; Manassas, Va.; Catalog No. CRL-2003™) were grown in Roswell Park Memorial Institute (RPMI) medium supplemented with 10% heat-inactivated fetal bovine serum (FBS), 2 ng/mL granulocyte-macrophage colony-stimulating factor, 1×non-essential amino acids (NEAA), and 1 mM sodium pyruvate. The day before the assay, the cultures were transferred to Opti-MEM™, 1×NEAA, 1 mM sodium pyruvate, and 0.5% charcoal-stripped FBS (starve medium). Inhibitor stock solutions (5 mM in DMSO) were serially diluted 1:2 in DMSO to generate a 10-point concentration titration (at 500×test concentration), which was further diluted by a 50-fold dilution in Assay Medium (RPMI containing 1×NEAA and 1 mM sodium pyruvate) to generate a 10×concentration titration (in 2% DMSO). The cells (300,000 cells/well in 35 μL of Assay Medium) were seeded in 384-well Greiner plates. Diluted inhibitor at 10×concentration (5 μL) was added to the cells and the plates were incubated for 30 minutes at 37° C. in a humidified incubator. Cells were stimulated with the human recombinant cytokine at the respective EC90 concentrations, as previously determined for each individual lot. For the phosphorylated signal transducer and activator of transcription 6 (P-STAT6) TF-1+Interleukin-13 (IL-13) assay, 10 μL of 250 ng/mL IL-13 (R&D Systems; Minneapolis, Minn.) was added to the cells, which were then incubated for 10 minutes at 37° C. For the P-STAT5 TF-1+Erythropoietin (EPO) assay, 10 μL of 110 IU/mL EPO (Gibco Life Technologies, Catalog No. PHC2054) was added to the cells, which were then incubated for 30 min at 37° C. For both assays, the incubation was followed by addition to the cells of 5 μL of ice-cold 10× cell lysis buffer (Cell Signaling Technologies; Danvers, Mass.; Catalog No. 9803S) containing 1 mM phenylmethylsulfonyl fluoride (PMSF). Assay plates were frozen at −80° C. for a minimum of 1 horn. In the IL-13 assay, P-STAT6 was measured by coating goat anti-rabbit (GAR) plates (Meso Scale Discovery [MSD]; Rockville, Md.; Catalog No. MSD L21RA-1) with rabbit anti-human total STAT6 antibody (Cell Signaling Technologies; Catalog No. 9362S), incubating the cell lysates in the coated plates overnight at 4° C., and then detecting with mouse anti-P-STAT6 (Tyr641) Clone 16E12 antibody (MilliporeSigma; Burlington, Mass.; Catalog No. 05-590, custom labeled by MSD with SULFO-tag) using standard MSD plate processing, washing, and detection protocols. In the EPO assay, P-STAT5 was detected using the phospho-STAT5a,b Whole Cell Lysate Kit (MSD; Catalog No. K150IGD-1). The electrochemiluminescence (ECL) signal of wells was read on the MESO SECTOR S600 (MSD) reader.

The target of data set [3] is T1, recombinant human JAK1 kinase domain protein (Residues 854-1154) (Homo sapiens, UniProt P23458).
T1 construct: human JAK1 kinase domain protein (Residues 854-1154); purchased Proteros Biostructures GmbH (Martinsried, Germany); host or cells: insect cells
Kind of data set: JAK1 biochemical assay (microfluidic mobility shift, peptide phosphorylation). As to conditions: 25 μM ATP, 1 nM total JAK1; read-out: Enzyme JAK1 Ki. From the text: JAK1 and JAK2 Biochemical Assays

Data set [4] has as its system JAK1: IL-13-stimulated STAT6 phosphorylation in BEAS-2B cells. Kind of data set: P-STAT6 BEAS-2B+IL-13 Cell Assay. It is filed as cell-based, human. As to conditions: IL-13 stimulation, read-out: Cellular JAK1 PSTAT6 BEAS2B + IL13 IC50. In a few lines: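 BEAS-2B cells in BEGM preincubated 1 h at 37 °C with 10-point, 1:2 compound dilutions, then stimulated 15 min with IL-13 (250 ng/mL stock). Lysate pSTAT6 (Tyr641) captured on total-STAT6 antibody and read by MSD electrochemiluminescence; IC50 from four-parameter logistic fit.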

In data set [5] the test system is JAK1 pathway: P-STAT6 in TF-1 human erythroleukemia cells + IL-13. Kind of data set: P-STAT6 TF-1+Interleukin-13 (IL-13) assay. It is filed as cell-based. As to conditions: Homo sapiens, TF-1, TF-1 cells, IL-13 stimulation; read-out: Cellular JAK1 PSTAT6 TF-1 + IL13 IC50. The protocol:
as §1

Data set [6] can be described thus: Mouse lung tissue binding (equilibrium dialysis, RED). As to conditions: for Mouse LTB %: mouse lung tissue binding, % bound (Table 3); for Lung tissue binding, %: Table 5, sulfone-sulfide analog pairs. Type of data set: in vitro ADME. As for the experimental part:
Mouse lung tissue binding. A high bound fraction or percentage of JAK1/JAK2 inhibitors to lung tissue may be undesirable since it can reduce the amount of free drug available to inhibit JAK1 or JAK2.
(a) Tissue binding experiments were performed in triplicate (n=3) using a Single-Use RED Plate by following the standard protocol. Initially, individual drugs were spiked to tissue homogenates (pH 7.4) to achieve a final concentration of 1 μM, and then 300 μL of drug-tissue homogenate mixtures were transferred to the donor wells of the RED plate which was pre-loaded with 500 μL phosphate buffer saline (133 mM) on the receiver wells. The RED plate was sealed with a gas permeable membrane and placed in a shaking incubator (450 rpm, VWR Symphony™) for 6 hr at 37° C. with 5% CO2. At the end of incubation, aliquots of 30 μL samples were taken out of the RED device and matrix equalized with an equal volume of tissue homogenates or buffer, and resulting samples were then immediately quenched with ice cold acetonitrile (sample:acetonitrile 1:4) containing either propranolol or labetalol as an internal standard. After shaking for 15 min at 500 rpm on a Thermo Scientific Compact Digital MicroPlate Shaker, all samples were then subjected to centrifugation at 3700 rpm for 15 min (Beckman Coulter Allegra X 12R) to remove plasma protein. Subsequently, supernatants were collected and then diluted with an equal volume of water prior to LC-MS/MS analysis.
(b) In an alternate procedure, the extent of lung tissue binding of test compound to mouse lung homogenate may also be determined by equilibrium dialysis using Pierce RED (rapid equilibrium dialysis) devices (Fisher Scientific 89811 & 89809). A 10 mM solution of compound in DMSO was prepared and diluted to 1 mM with DMSO. An aliquot of this 1 mM (4 μL) was added into lung homogenate (dilution factor of 1:9, lung tissue:potassium phosphate buffer (0.05 M, pH 7.4)) to give a final compound incubation concentration of 5 μM with solvent accounting for 0.5% (v/v) of the final incubation volume.
For each assay, the percentage lung tissue bound was determined in triplicate. Lung homogenate (200 μL) was loaded into one side of a RED device insert, in triplicate, and 350 μL of potassium phosphate buffer was loaded into the other side. The RED devices were sealed and incubated for 4 hours at ca. 37° C. on an orbital shaker (˜150 rpm).
Following incubation, an aliquot of lung homogenate (8 μL) and an aliquot of dialysate (72 μL) were matrix matched (lung homogenate with 72 μL phosphate buffer, dialysate with 8 μL lung homogenate) ahead of analysis. Protein was precipitated from the samples with the addition of 160 μL of acetonitrile containing internal standard. The same matrix matching and protein precipitation procedure was performed on lung homogenate aliquots sampled at the start of the experiment (t=0 min samples), for the assessment of the mass balance. The quenched samples were centrifuged (4000 rpm, 30 min, 4° C.) and the resultant supernatant diluted with water (3:1 (v/v), supernatant: water) and the samples analysed for parent compound by liquid chromatography mass spectrometry assay.
The unbound fraction (fu) in lung homogenate was determined from the ratio of the dialysate to homogenate peak area, corrected to take into account the lung homogenate dilution (D) to enable an estimate of whole lung tissue binding using the following equations: Undiluted fu=(1/D)/[((1/Apparent fu)−1)+(1/D)] Corrected fraction bound (%)=(1-undiluted fu)*100

Chain of Recombinant human JAK2 kinase domain protein (Residues 812-1132) (O60674 812-1132): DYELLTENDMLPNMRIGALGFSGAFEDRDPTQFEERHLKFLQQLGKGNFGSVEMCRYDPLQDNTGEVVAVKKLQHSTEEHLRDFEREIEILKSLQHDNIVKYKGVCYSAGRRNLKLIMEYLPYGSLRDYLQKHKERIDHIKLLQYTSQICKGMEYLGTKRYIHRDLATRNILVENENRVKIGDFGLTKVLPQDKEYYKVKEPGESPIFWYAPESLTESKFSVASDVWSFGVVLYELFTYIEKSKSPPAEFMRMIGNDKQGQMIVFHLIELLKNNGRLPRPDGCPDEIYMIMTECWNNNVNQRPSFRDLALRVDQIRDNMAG
T1 sequence (P23458 854-1154): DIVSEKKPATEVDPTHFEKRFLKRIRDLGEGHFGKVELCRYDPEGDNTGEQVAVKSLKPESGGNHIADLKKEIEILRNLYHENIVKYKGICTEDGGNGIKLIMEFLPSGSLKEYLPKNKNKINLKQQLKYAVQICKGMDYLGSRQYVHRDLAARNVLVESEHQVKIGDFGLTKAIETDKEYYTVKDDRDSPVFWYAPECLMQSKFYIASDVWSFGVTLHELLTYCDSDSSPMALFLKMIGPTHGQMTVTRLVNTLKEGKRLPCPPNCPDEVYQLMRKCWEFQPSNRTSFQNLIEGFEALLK

For the compound `CN1CCC[C@@H]1Cn1cc(NC(=O)c2cnn3cccnc23)c(-c2cc(S(=O)(=O)C3CC3)ccc2OC(F)F)n1` (racemic) [Example 60, N-[3-[5-cyclopropylsulfonyl-2-(difluoromethoxy)phenyl]-1-[[rac-(2R)-1-methylpyrrolidin-2-yl]methyl]pyrazol-4-yl]pyrazolo[1,5-a]pyrimidine-3-carboxamide], the Ki was 2.5 nM in data set [1] and 0.0011 µM in data set [3]. Further, the IC50 stood at 0.17 µM in data set [2] (Homo sapiens, TF-1, TF-1 cells); 0.044 µM in data set [4] (Homo sapiens, BEAS-2B); 0.024 µM in data set [5].

Regarding `Cn1cc(NC(=O)c2cnn3cccnc23)c(-c2cc(S(=O)(=O)C3CCCNC3)ccc2OC(F)F)n1` (single isomer, unassigned) [Example 36, N-[3-[2-(difluoromethoxy)-5-(3-piperidylsulfonyl)phenyl]-1-methyl-pyrazol-4-yl]pyrazolo[1,5-a]pyrimidine-3-carboxamide], the results for the Ki in data set [1] and in data set [3] were 1.1 nM and 0.0018 µM, respectively. Also, the values for the IC50 in data set [2] (TF-1 cells) and in data set [5] were 0.12 µM and 0.071 µM, respectively.

Take `CC(O)C(C)S(=O)(=O)c1ccc(OC(F)F)c(-c2nn(C)cc2NC(=O)c2cnn3cccnc23)c1` (single isomer, unassigned) [Example 69, N-[3-[2-(difluoromethoxy)-5-(2-hydroxy-1-methyl-propyl)sulfonyl-phenyl]-1-methyl-pyrazol-4-yl]pyrazolo[1,5-a]pyrimidine-3-carboxamide]: the “Mouse LTB %” value in data set [6] worked out at 78.4%. The IC50 in data set [4] was found to be 0.077 µM.

For `CC(C)S(=O)(=O)c1ccc(OC(F)F)c(-c2nn(C)cc2NC(=O)c2cnn3cccnc23)c1` [Example 1, N-[3-[2-(difluoromethoxy)-5-isopropylsulfonyl-phenyl]-1-methyl-pyrazol-4-yl]pyrazolo[1,5-a]pyrimidine-3-carboxamide], the Ki in data set [1] was determined as 0.25 nM; in data set [3], 0.00056 µM. Moreover, the IC50 in data set [2] (Homo sapiens, TF-1, TF-1 cells) was determined as 0.012 µM; in data set [4] (Homo sapiens, BEAS-2B), 0.031 µM; in data set [5], 0.0063 µM.

Turning to `Cn1cc(NC(=O)c2cnn3cccnc23)c(-c2cc(S(=O)(=O)c3cccnc3)ccc2OC(F)F)n1` [Example 42, N-[3-[2-(difluoromethoxy)-5-(3-pyridylsulfonyl)phenyl]-1-methyl-pyrazol-4-yl]pyrazolo[1,5-a]pyrimidine-3-carboxamide], the values for the Ki in data set [1] and in data set [3] were 0.24 nM and 0.00042 µM, respectively. The IC50 in data set [2] (Homo sapiens, TF-1, TF-1 cells) is 0.021 µM; in data set [4] (Homo sapiens, BEAS-2B) it was 0.03 µM; in data set [5] it was 0.0026 µM.

As to `CNCCn1cc(S(=O)(=O)c2ccc(OC(F)F)c(-c3nn(C)cc3NC(=O)c3cnn4cccnc34)c2)cn1` [Example 48, N-[3-[2-(difluoromethoxy)-5-[1-[2-(methylamino)ethyl]pyrazol-4-yl]sulfonyl-phenyl]-1-methyl-pyrazol-4-yl]pyrazolo[1,5-a]pyrimidine-3-carboxamide], the “Mouse LTB %” value in data set [6] turned out to be 91.3%. The Ki in data set [1] was 0.39 nM; in data set [3] it was 0.00052 µM. In addition, the IC50 in data set [4] (Homo sapiens, BEAS-2B) is 0.13 µM.

Take `CN(C)CCn1cc(NC(=O)c2cnn3cccnc23)c(-c2cc(S(=O)(=O)C3CC3)ccc2OC(F)F)n1` [Example 50, N-[3-[5-cyclopropylsulfonyl-2-(difluoromethoxy)phenyl]-1-[2-(dimethylamino)ethyl]pyrazol-4-yl]pyrazolo[1,5-a]pyrimidine-3-carboxamide]: the Ki in data set [1] turned out to be 1.9 nM; in data set [3], 0.0017 µM. The IC50 in data set [2] (Homo sapiens, TF-1, TF-1 cells) was 0.16 µM; in data set [4] (Homo sapiens, BEAS-2B), 0.05 µM; in data set [5] it was 0.027 µM.

`C[C@@H](Cn1cc(S(=O)(=O)c2ccc(OC(F)F)c(-c3nn(C)cc3NC(=O)c3cnn4cccnc34)c2)cn1)N(C)C` [Example 58, N-[3-[2-(difluoromethoxy)-5-[1-[(2S)-2-(dimethylamino)propyl]pyrazol-4-yl]sulfonyl-phenyl]-1-methyl-pyrazol-4-yl]pyrazolo[1,5-a]pyrimidine-3-carboxamide]: the figures for the inhibition constant (Ki) in data set [1] and in data set [3] were 0.86 nM and 0.00089 µM, respectively. Besides, the IC50 was determined as 0.032 µM in data set [2] (Homo sapiens, TF-1, TF-1 cells); 0.04 µM in data set [4] (Homo sapiens, BEAS-2B); 0.024 µM in data set [5].

As to `Cn1cc(NC(=O)c2cnn3cccnc23)c(-c2cc(SC3COC3)ccc2OC(F)F)n1` [reference compound], in data set [6], the “Lung tissue binding, %” value is on record as 97.4%.

For the compound `Cn1cc(Sc2ccc(OC(F)F)c(-c3nn(C)cc3NC(=O)c3cnn4cccnc34)c2)cn1` [reference compound], the “Lung tissue binding, %” value in data set [6] came out at 97%.
